Measurements published in the supplement of paper PMC9663587.

Assays:
[1] = compound: T1, CN(C)C/C=C/C(=O)Nc1ccc(C(=O)N2CCC[C@@H](Nc3ncc(Cl)c(-c4c[nH]c5ccccc45)n3)C2)cc1 [THZ531]; experiment: GR value, 72 h; higher = faster growth (1 = untreated, <0 = killing);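 further: breast cancer and non-malignant breast epithelial lines, nine half-log doses, viable cells counted by Hoechst and LIVE/DEAD dye imaging versus time-zero plates and DMSO controls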
[2] = compound: CCc1cnn2c(NCc3ccc[n+]([O-])c3)cc(N3CCCC[C@H]3CCO)nc12; experiment: as above
[3] = compound: CCN1CCN(Cc2ccc(Nc3ncc(F)c(-c4cc(F)c5nc(C)n(C(C)C)c5c4)n3)nc2)CC1; experiment: as above
[4] = compound: CN(C)C(=O)c1cc2cnc(Nc3ccc(N4CCNCC4)cn3)nc2n1C1CCCC1 [LEE011/Ribociclib]; experiment: as above
[5] = compound: CC(=O)c1c(C)c2cnc(Nc3ccc(N4CCN(CCOCCOCCOCCNC(=O)COc5cccc6c5C(=O)N(C5CCC(=O)NC5=O)C6=O)CC4)cn3)nc2n(C2CCCC2)c1=O [BSJ-03-123]; experiment: as above
[6] = compound: C=CC(=O)Nc1ccc(C(=O)Nc2[nH]nc3c2CN(C(=O)N[C@H](CN(C)C)c2ccccc2)C3(C)C)cc1 [YKL-5-124]; experiment: as above
[7] = compound: CN(C)C/C=C/C(=O)Nc1ccc(C(=O)Nc2cccc(Nc3ncc(Cl)c(-c4c[nH]c5ccccc45)n3)c2)cc1 [THZ1]; experiment: as above
[8] = compound: CC(=O)c1c(C)c2cnc(Nc3ccc(N4CCNCC4)cn3)nc2n(C2CCCC2)c1=O; experiment: as above
[9] = compound: T1, THZ531
[10] = compound: Cc1cc(Nc2ncc(Cl)c(Nc3ccccc3S(=O)(=O)C(C)C)n2)c(OC(C)C)cc1C1CCNCC1 [Ceritinib/LDK378]
[11] = compound: C[C@@H]1COCCN1c1cc(C2([S@](C)(=N)=O)CC2)nc(-c2cc[nH]c3nccc2-3)n1 [AZD6738]
[12] = compound: COc1cc2c(Oc3ccc4[nH]c(C)cc4c3F)ncnc2cc1OCCCN1CCCC1 [Cediranib/AZD2171]
[13] = compound: CC(=O)O[C@H]1C(=O)[C@@]2(C)[C@H]([C@H](OC(=O)c3ccccc3)[C@]3(O)C[C@H](OC(=O)[C@H](O)[C@@H](NC(=O)c4ccccc4)c4ccccc4)C(C)=C1C3(C)C)[C@]1(OC(C)=O)CO[C@@H]1C[C@@H]2O [Paclitaxel]
[14] = compound: CNCc1ccc(-c2[nH]c3cc(F)cc4c3c2CCNC4=O)cc1 [Rucaparib]
[15] = compound: O=C1NC(=O)[C@@H](c2cn3c4c(cccc24)CCC3)[C@@H]1c1c[nH]c2ccccc12 [Tivantinib/ARQ197]
[16] = compound: CN(C)C/C=C/C(=O)Nc1ccc(O[C@@H]2CCC[C@@H](Nc3ncc(Cl)c(-c4c[nH]c5ccccc45)n3)C2)cc1 [BSJ-01-175]
[17] = compound: CS(=O)(=O)N1CCN(Cc2cc3nc(-c4cccc5[nH]ncc45)nc(N4CCOCC4)c3s2)CC1 [Pictilisib/GDC0941]
[18] = compound: CN1CCN(C(=O)c2ccc3cc(CCNc4ncnc5ccc(C#N)cc45)ccc3c2)CC1 [senexin b]
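Wherever GR50, 72 h is given: breast cancer and non-malignant breast epithelial cell lines, Deep Dye Drop or Dye Drop imaging, nine half-log doses, GR normalized to time-zero plates and DMSO-only controls.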

PDX1258
GR value ([1]; 0.0001 µM): 0.889 GR | GR value ([1]; 0.0003162 µM): 1.04 GR | GR value ([1]; 0.001 µM): 0.96 GR | GR value ([1]; 0.003162 µM): 1.07 GR | GR value ([1]; 0.01 µM): 1.07 GR | GR value ([1]; 0.03162 µM): 0.765 GR | GR value ([1]; 0.1 µM): -0.303 GR | GR value ([1]; 0.3162 µM): -0.601 GR | GR value ([1]; 1 µM): -0.509 GR | GR value ([2]; 0.0001 µM): 1.05 GR | GR value ([2]; 0.0003162 µM): 1.08 GR | GR value ([2]; 0.001 µM): 1.13 GR | GR value ([2]; 0.003162 µM): 1.08 GR | GR value ([2]; 0.01 µM): 0.655 GR | GR value ([2]; 0.03162 µM): -0.491 GR | GR value ([2]; 0.1 µM): -0.587 GR | GR value ([2]; 0.3162 µM): -0.579 GR | GR value ([2]; 1 µM): -0.628 GR | GR value ([3]; 0.001 µM): 1.06 GR | GR value ([3]; 0.003162 µM): 1.1 GR | GR value ([3]; 0.01 µM): 1.03 GR | GR value ([3]; 0.03162 µM): 0.961 GR | GR value ([3]; 0.1 µM): 0.911 GR | GR value ([3]; 0.3162 µM): 0.719 GR | GR value ([3]; 1 µM): 0.375 GR | GR value ([3]; 3.162 µM): -0.0697 GR | GR value ([3]; 10 µM): -0.334 GR | GR value ([4]; 0.001 µM): 1.11 GR | GR value ([4]; 0.003162 µM): 1.12 GR | GR value ([4]; 0.01 µM): 0.914 GR | GR value ([4]; 0.03162 µM): 1.18 GR | GR value ([4]; 0.1 µM): 1.19 GR | GR value ([4]; 0.3162 µM): 1.11 GR | GR value ([4]; 1 µM): 0.93 GR | GR value ([4]; 3.162 µM): 1.14 GR | GR value ([4]; 10 µM): 1.02 GR | GR value ([5]; 0.001 µM): 1.13 GR | GR value ([5]; 0.003162 µM): 0.919 GR | GR value ([5]; 0.01 µM): 1.2 GR | GR value ([5]; 0.03162 µM): 1.29 GR | GR value ([5]; 0.1 µM): 1.08 GR | GR value ([5]; 0.3162 µM): 1.02 GR | GR value ([5]; 1 µM): 0.916 GR | GR value ([5]; 3.162 µM): 0.819 GR | GR value ([5]; 10 µM): -0.415 GR | GR value ([6]; 0.001 µM): 0.686 GR | GR value ([6]; 0.003162 µM): 0.363 GR | GR value ([6]; 0.01 µM): 0.231 GR | GR value ([6]; 0.03162 µM): 0.0382 GR | GR value ([6]; 0.1 µM): 0.0596 GR | GR value ([6]; 0.3162 µM): -0.0277 GR | GR value ([6]; 1 µM): -0.147 GR | GR value ([6]; 3.162 µM): -0.294 GR | GR value ([6]; 10 µM): -0.519 GR | GR value ([7]; 0.0001 µM): 1.11 GR | GR value ([7]; 0.0003162 µM): 1.16 GR | GR value ([7]; 0.001 µM): 1.17 GR | GR value ([7]; 0.003162 µM): 0.923 GR | GR value ([7]; 0.01 µM): 0.918 GR | GR value ([7]; 0.03162 µM): -0.295 GR | GR value ([7]; 0.1 µM): -0.51 GR | GR value ([7]; 0.3162 µM): -0.509 GR | GR value ([7]; 1 µM): -0.665 GR | GR value ([8]; 0.0003162 µM): 1.07 GR | GR value ([8]; 0.001 µM): 1.08 GR | GR value ([8]; 0.003162 µM): 1.11 GR | GR value ([8]; 0.01 µM): 1.12 GR | GR value ([8]; 0.03162 µM): 1.1 GR | GR value ([8]; 0.1 µM): 1.05 GR | GR value ([8]; 0.3162 µM): 1.09 GR | GR value ([8]; 1 µM): 1.09 GR | GR value ([8]; 3.162 µM): 0.993 GR | GR50, 72 h [9]: 0.0492 µM | GR50, 72 h [10]: 2.08 µM | GR50, 72 h [11]: 3.53 µM | GR50, 72 h [12]: 4.71 µM | GR50, 72 h [13]: 0.00215 µM | GR50, 72 h [14]: > 10 µM | GR50, 72 h [15]: 0.397 µM | GR50, 72 h [16]: 0.00362 µM | GR50, 72 h [17]: 1.7 µM | GR50, 72 h [18]: > 10 µM

PDXHCI002
GR value ([1]; 0.0001 µM): 1.1 GR | GR value ([1]; 0.0003162 µM): 1.06 GR | GR value ([1]; 0.001 µM): 0.966 GR | GR value ([1]; 0.003162 µM): 1.06 GR | GR value ([1]; 0.01 µM): 0.958 GR | GR value ([1]; 0.03162 µM): 0.782 GR | GR value ([1]; 0.1 µM): 0.0491 GR | GR value ([1]; 0.3162 µM): -0.122 GR | GR value ([1]; 1 µM): -0.198 GR | GR value ([2]; 0.0001 µM): 1.11 GR | GR value ([2]; 0.0003162 µM): 1.1 GR | GR value ([2]; 0.001 µM): 1.11 GR | GR value ([2]; 0.003162 µM): 1.05 GR | GR value ([2]; 0.01 µM): 0.744 GR | GR value ([2]; 0.03162 µM): -0.331 GR | GR value ([2]; 0.1 µM): -0.387 GR | GR value ([2]; 0.3162 µM): -0.343 GR | GR value ([2]; 1 µM): -0.365 GR | GR value ([3]; 0.001 µM): 1.08 GR | GR value ([3]; 0.003162 µM): 1 GR | GR value ([3]; 0.01 µM): 0.785 GR | GR value ([3]; 0.03162 µM): 0.527 GR | GR value ([3]; 0.1 µM): 0.24 GR | GR value ([3]; 0.3162 µM): 0.0121 GR | GR value ([3]; 1 µM): -0.312 GR | GR value ([3]; 3.162 µM): -0.593 GR | GR value ([3]; 10 µM): -0.688 GR | GR value ([4]; 0.001 µM): 1.04 GR | GR value ([4]; 0.003162 µM): 1 GR | GR value ([4]; 0.01 µM): 0.903 GR | GR value ([4]; 0.03162 µM): 0.925 GR | GR value ([4]; 0.1 µM): 0.882 GR | GR value ([4]; 0.3162 µM): 0.862 GR | GR value ([4]; 1 µM): 0.828 GR | GR value ([4]; 3.162 µM): 0.766 GR | GR value ([4]; 10 µM): 0.51 GR | GR value ([5]; 0.001 µM): 1.08 GR | GR value ([5]; 0.003162 µM): 1.03 GR | GR value ([5]; 0.01 µM): 0.992 GR | GR value ([5]; 0.03162 µM): 0.883 GR | GR value ([5]; 0.1 µM): 0.812 GR | GR value ([5]; 0.3162 µM): 0.771 GR | GR value ([5]; 1 µM): 0.565 GR | GR value ([5]; 3.162 µM): 0.472 GR | GR value ([5]; 10 µM): -0.0835 GR | GR value ([6]; 0.001 µM): 0.288 GR | GR value ([6]; 0.003162 µM): 0.306 GR | GR value ([6]; 0.01 µM): 0.168 GR | GR value ([6]; 0.03162 µM): 0.196 GR | GR value ([6]; 0.1 µM): 0.158 GR | GR value ([6]; 0.3162 µM): 0.0899 GR | GR value ([6]; 1 µM): 0.0177 GR | GR value ([6]; 3.162 µM): 0.0442 GR | GR value ([6]; 10 µM): -0.129 GR | GR value ([7]; 0.0001 µM): 1.05 GR | GR value ([7]; 0.0003162 µM): 1.01 GR | GR value ([7]; 0.001 µM): 1.02 GR | GR value ([7]; 0.003162 µM): 0.984 GR | GR value ([7]; 0.01 µM): 0.541 GR | GR value ([7]; 0.03162 µM): -0.0195 GR | GR value ([7]; 0.1 µM): -0.163 GR | GR value ([7]; 0.3162 µM): -0.148 GR | GR value ([7]; 1 µM): -0.193 GR | GR value ([8]; 0.0003162 µM): 1.09 GR | GR value ([8]; 0.001 µM): 1.09 GR | GR value ([8]; 0.003162 µM): 1.02 GR | GR value ([8]; 0.01 µM): 0.946 GR | GR value ([8]; 0.03162 µM): 0.723 GR | GR value ([8]; 0.1 µM): 0.552 GR | GR value ([8]; 0.3162 µM): 0.427 GR | GR value ([8]; 1 µM): 0.374 GR | GR value ([8]; 3.162 µM): 0.274 GR | GR50, 72 h [9]: 0.0493 µM | GR50, 72 h [10]: 0.338 µM | GR50, 72 h [11]: > 10 µM | GR50, 72 h [12]: 1.47 µM | GR50, 72 h [13]: 0.00249 µM | GR50, 72 h [14]: > 10 µM | GR50, 72 h [15]: 0.238 µM | GR50, 72 h [16]: 0.00607 µM | GR50, 72 h [17]: 2.25 µM | GR50, 72 h [18]: > 10 µM
